Measured values as given in patent US20240270741A1 (Cogent Biosciences, Inc., priority 2023, published 2024).

What follows are compounds tested against FGFR2 (Homo sapiens, UniProt P21802) (assay: FGFR wild type enzyme assay (HTRF KinEASE-TK), FGFR2). Conditions: Enz FGFR2 (nM), FGFR2 wild type enzyme assay.
Sequence of FGFR2 (P21802 399-821 limits assumed): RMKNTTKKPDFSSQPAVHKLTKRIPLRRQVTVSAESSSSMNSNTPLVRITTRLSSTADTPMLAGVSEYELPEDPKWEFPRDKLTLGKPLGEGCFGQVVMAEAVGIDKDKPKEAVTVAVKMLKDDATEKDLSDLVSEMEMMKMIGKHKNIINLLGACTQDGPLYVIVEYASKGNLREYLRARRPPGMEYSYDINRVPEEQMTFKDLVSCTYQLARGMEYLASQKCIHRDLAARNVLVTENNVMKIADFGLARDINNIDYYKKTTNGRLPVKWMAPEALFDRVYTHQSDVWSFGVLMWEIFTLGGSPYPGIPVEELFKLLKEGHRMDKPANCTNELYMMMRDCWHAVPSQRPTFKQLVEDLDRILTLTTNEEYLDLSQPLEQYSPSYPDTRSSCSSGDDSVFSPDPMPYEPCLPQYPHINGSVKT
Compound `CC(=O)N1CCC[C@H](n2ncc(-c3cc(Sc4ccc(F)cc4C#N)c4c(C#N)cnn4c3)c2C)C1` [Example 334, (S)-6-(1-(1-acetylpiperidin-3-yl)-5-methyl-1H-pyrazol-4-yl)-4-((2-cyano-4-fluorophenyl)thio)pyrazolo [1,5-a]pyridine-3-carbonitrile] has an IC50 of 1 nM.
Compound `Cc1c(-c2cc(Sc3ccc(F)cc3C#N)c3c(C#N)cnn3c2)cnn1[C@H]1CCCN(C)C1` [Example 335, (S)-4-((2-cyano-4-fluorophenyl)thio)-6-(5-methyl-1-(1-methylpiperidin-3-yl)-1H-pyrazol-4-yl)pyrazolo[1,5-a]pyridine-3-carbonitrile] has an IC50 of 1 nM.
In the case of `Cc1c(-c2cc(Sc3ccc(F)cc3C#N)c3c(C#N)cnn3c2)cnn1[C@H]1CCCN(CCO)C1` [Example 336, (S)-4-((2-cyano-4-fluorophenyl)thio)-6-(1-(1-(2-hydroxyethyl)piperidin-3-yl)-5-methyl-1H-pyrazol-4-yl)pyrazolo[1,5-a]pyridine-3-carbonitrile], the IC50 is reported as 1 nM.
With `Cc1nn([C@H]2CC[C@@H](N(C)C)CC2)c(C)c1-c1cc(Sc2ccccc2C#N)c2c(C#N)cnn2c1` [Example 337, 4-((2-cyanophenyl)thio)-6-(1-((1s,4s)-4-(dimethylamino)cyclohex-yl)-3,5-dimethyl-1H-pyrazol-4-yl)pyrazolo[1,5-a]pyridine-3-carbonitrile] the IC50 was 3 nM.
`CC(=O)N1CCC(n2ncc(-c3cc(Sc4ccc(F)cc4C#N)c4c(C#N)cnn4c3)c2C)CC1` [Example 338, 6-(1-(1-acetylpiperidin-4-yl)-5-methyl-1H-pyrazol-4-yl)-4-((2-cyano-4-fluorophenyl)thio)pyrazolo [1,5-a]pyridine-3-carbonitrile] showed an IC50 of 1 nM.
`Cc1c(-c2cc(Sc3ccc(F)cc3C#N)c3c(C#N)cnn3c2)cnn1C1CCN(C(=O)CO)CC1` [Example 339, 4-((2-cyano-4-fluorophenyl)thio)-6-(1-(1-(2-hydroxyacetyl)piperidin-4-yl)-5-methyl-1H-pyrazol-4-yl)pyrazolo[1,5-a]pyridine-3-carbonitrile] was tested, and the IC50 was 1 nM.
In the case of `C#Cc1cnn2cc(-c3cnn(C4CCN(C(=O)CO)CC4)c3C)cc(Sc3ccc(F)cn3)c12` [Example 340, 1-(4-(4-(3-ethynyl-4-((5-fluoropyridin-2-yl)thio)pyrazolo[1,5-a]pyridin-6-yl)-5-methyl-1H-pyrazol-1-yl)piperidin-1-yl)-2-hydroxyethan-1-one], the IC50 is reported as 7.5 nM.
Work on `Cc1c(-c2cc(Sc3ccc(F)cn3)c3c(C#N)cnn3c2)cnn1C1CCN(C(=O)[C@H](C)O)CC1` [Example 341, (S)-4-((5-fluoropyridin-2-yl)thio)-6-(1-(1-(2-hydroxypropanoyl)piperidin-4-yl)-5-methyl-1H-pyrazol-4-yl)pyrazolo[1,5-a]pyridine-3-carbonitrile] yielded an IC50 of 9 nM.
In the case of `Cc1c(-c2cc(Sc3ncc(F)cc3F)c3c(C#N)cnn3c2)cnn1C1CCN(C(=O)[C@H](C)O)CC1` [Example 342, (S)-4-((3,5-difluoropyridin-2-yl)thio)-6-(1-(1-(2-hydroxypropanoyl)piperidin-4-yl)-5-methyl-1H-pyrazol-4-yl)pyrazolo[1,5-a]pyridine-3-carbonitrile], the IC50 is reported as 6 nM.
For `Cc1c(-c2cc(Sc3ccc(F)cn3)c3c(C#N)cnn3c2)cnn1[C@H]1CCCN(C)C1` [Example 343, (S)-4-((5-fluoropyridin-2-yl)thio)-6-(5-methyl-1-(1-methylpiperidin-3-yl)-1H-pyrazol-4-yl)pyrazolo[1,5-a]pyridine-3-carbonitrile], the IC50 was 9 nM.
For `Cc1c(-c2cc(Sc3ncc(F)cc3F)c3c(C#N)cnn3c2)cnn1[C@H]1CC[C@@H](NC(=O)CO)CC1` [Example 344, N-((1s,4s)-4-(4-(3-cyano-4-((3,5-difluoropyridin-2-yl)thio)pyrazolo[1,5-a]pyridin-6-yl)-5-methyl-1H-pyrazol-1-yl)cyclohexyl)-2-hydroxyacetamide], the IC50 was 3 nM.
With `Cc1c(-c2cc(Sc3ncc(F)cc3F)c3c(C#N)cnn3c2)cnn1[C@H]1CCCNC1` [Example 345, (S)-4-((3,5-difluoropyridin-2-yl)thio)-6-(5-methyl-1-(piperidin-3-yl)-1H-pyrazol-4-yl)pyrazolo[1,5-a]pyridine-3-carbonitrile] the IC50 was 4 nM.
`Cc1c(-c2cc(Sc3ncc(F)cc3F)c3c(C#N)cnn3c2)cnn1[C@H]1CCCN(C)C1` [Example 346, (S)-4-((3,5-difluoropyridin-2-yl)thio)-6-(5-methyl-1-(1-methylpiperidin-3-yl)-1H-pyrazol-4-yl)pyrazolo[1,5-a]pyridine-3-carbonitrile] showed an IC50 of 5 nM.
`CN[C@H]1CC[C@H](n2ncc(-c3cc(Sc4ccccn4)c4c(C#N)cnn4c3)c2C)CC1` [Example 347, 6-(5-methyl-1-((1r,4r)-4-(methylamino)cyclohexyl)-1H-pyrazol-4-yl)-4-(pyridin-2-ylthio)pyrazolo[1,5-a]pyridine-3-carbonitrile] was tested, and the IC50 was 2.5 nM.
For `CN[C@]1(C)CC[C@H](n2ncc(-c3cc(Sc4ccccn4)c4c(C#N)cnn4c3)c2C)CC1` [Example 348, 6-(5-methyl-1-((1s,4s)-4-methyl-4-(methylamino)cyclohexyl)-1H-pyrazol-4-yl)-4-(pyridin-2-ylthio)pyrazolo[1,5-a]pyridine-3-carbonitrile], the IC50 was 2 nM.
For `CC(=O)N[C@H]1CC[C@@H](n2cc(-c3cc(Sc4ccc(F)cn4)c4c(C#N)cnn4c3)cn2)CC1` [Example 349, N-((1s,4s)-4-(4-(3-cyano-4-((5-fluoropyridin-2-yl)thio)pyrazolo[1,5-a]pyridin-6-yl)-1H-pyrazol-1-yl)cyclohexyl)acetamide], the IC50 was 3 nM.
With `CC(=O)N[C@H]1CC[C@H](n2cc(-c3cc(Sc4ccccc4C#N)c4c(C#N)cnn4c3)cn2)C1` [Example 350, N-((1s,3S)-3-(4-(3-cyano-4-((2-cyanophenyl)thio)pyrazolo [1,5-a]pyridin-6-yl)-1H-pyrazol-1-yl)cyclopentyl)acetamide] the IC50 was 0.5 nM.
For `Cc1c(-c2cc(Sc3ccc(F)cc3C#N)c3c(C#N)cnn3c2)cnn1[C@H]1CC[C@](C)(N)CC1` [Example 351, 6-(1-((1r,4r)-4-amino-4-methylcyclohexyl)-5-methyl-1H-pyrazol-4-yl)-4-((2-cyano-4-fluorophenyl)thio)pyrazolo [1,5-a]pyridine-3-carbonitrile], the IC50 was 0.5 nM.
For `CN[C@]1(C)CC[C@@H](n2ncc(-c3cc(Sc4ccc(F)cc4C#N)c4c(C#N)cnn4c3)c2C)CC1` [Example 352, 4-((2-cyano-4-fluorophenyl)thio)-6-(5-methyl-1-((1r,4r)-4-methyl-4-(methylamino)cyclohexyl)-1H-pyrazol-4-y)pyrazolo[1,5-a]pyridine-3-carbonitrile], the IC50 was 0.6 nM.
`Cc1c(-c2cc(Sc3ccc(F)cc3C#N)c3c(C#N)cnn3c2)cnn1C1CCN(CCO)CC1` [Example 353, 4-((2-cyano-4-fluorophenyl)thio)-6-(1-(1-(2-hydroxyethyl)piperidin-4-yl)-5-methyl-1H-pyrazol-4-yl)pyrazolo[1,5-a]pyridine-3-carbonitrile] gave an IC50 of 1 nM.
`Cc1c(-c2cc(Sc3ccc(F)cc3C#N)c3c(C#N)cnn3c2)cnn1C1CCN(C[C@H](C)O)CC1` [Example 354, (S)-4-((2-cyano-4-fluorophenyl)thio)-6-(1-(1-(2-hydroxypropyl)piperidin-4-yl)-5-methyl-1H-pyrazol-4-yl)pyrazolo[1,5-a]pyridine-3-carbonitrile] showed an IC50 of 2.5 nM.
Compound `Cc1cccc(Sc2cc(-c3cnn(C4CCN(C)CC4)c3C)cn3ncc(C#N)c23)c1C#N` [Example 355, 4-((2-cyano-3-methylphenyl)thio)-6-(5-methyl-1-(1-methylpiperidin-4-yl)-1H-pyrazol-4-yl)pyrazolo[1,5-a]pyridine-3-carbonitrile] has an IC50 of 2 nM.
For `Cc1c(-c2cc(Sc3cccc(F)c3C#N)c3c(C#N)cnn3c2)cnn1C1CCN(C)CC1` [Example 356, 4-((2-cyano-3-fluorophenyl)thio)-6-(5-methyl-1-(1-methylpiperidin-4-yl)-1H-pyrazol-4-yl)pyrazolo[1,5-a]pyridine-3-carbonitrile], the IC50 was 10 nM.
Work on `Cc1ccc(C#N)c(Sc2cc(-c3cnn(C4CCN(C)CC4)c3C)cn3ncc(C#N)c23)c1` [Example 357, 4-((2-cyano-5-methylphenyl)thio)-6-(5-methyl-1-(1-methylpiperidin-4-yl)-1H-pyrazol-4-yl)pyrazolo[1,5-a]pyridine-3-carbonitrile] yielded an IC50 of 2 nM.
`Cc1c(-c2cc(Sc3cc(Cl)ccc3C#N)c3c(C#N)cnn3c2)cnn1C1CCN(C)CC1` [Example 358, 4-((5-chloro-2-cyanophenyl)thio)-6-(5-methyl-1-(1-methylpiperidin-4-yl)-1H-pyrazol-4-yl)pyrazolo[1,5-a]pyridine-3-carbonitrile] was tested, and the IC50 was 2 nM.
For `Cc1c(-c2cc(Sc3cc(F)ccc3C#N)c3c(C#N)cnn3c2)cnn1C1CCN(C)CC1` [Example 359, 4-((2-cyano-5-fluorophenyl)thio)-6-(5-methyl-1-(1-methylpiperidin-4-yl)-1H-pyrazol-4-yl)pyrazolo[1,5-a]pyridine-3-carbonitrile], the IC50 was 1.5 nM.
`Cc1c(-c2cc(Sc3ccc(F)cc3C#N)c3c(C#N)cnn3c2)cnn1C1CCN(C(=O)[C@H](C)O)CC1` [Example 360, (S)-4-((2-cyano-4-fluorophenyl)thio)-6-(1-(1-(2-hydroxypropanoyl)piperidin-4-yl)-5-methyl-1H-pyrazol-4-yl)pyrazolo[1,5-a]pyridine-3-carbonitrile] gave an IC50 of 2 nM.
`COC(=O)N1CCC(n2ncc(-c3cc(Sc4ccc(F)cc4C#N)c4c(C#N)cnn4c3)c2C)CC1` [Example 361, methyl 4-(4-(3-cyano-4-((2-cyano-4-fluorophenyl)thio)pyrazolo [1,5-a]pyridin-6-yl)-5-methyl-1H-pyrazol-1-yl)piperidine-1-carboxylate] showed an IC50 of 2 nM.
`COC(=O)N[C@H]1CC[C@@H](n2ncc(-c3cc(Sc4ccc(F)cc4C#N)c4c(C#N)cnn4c3)c2C)CC1` [Example 362, methyl ((1s,4s)-4-(4-(3-cyano-4-((2-cyano-4-fluorophenyl)thio)pyrazolo [1,5-a]pyridin-6-yl)-5-methyl-1H-pyrazol-1-yl)cyclohexyl)carbamate] gave an IC50 of 1 nM.
